Data taken from patent US4902690A, “Pest controlling compositions” (The General Hospital Corporation, priority 1988, dated 1990).
Several values for one entry are separate records, joined by “and”; a condition that tells them apart may be missing. Identical values can stand only once. Like-named read-outs stand apart in the source and are kept apart here.

Legend:
[1] = tested on: octopamine-sensitive adenylate cyclase (firefly lantern octopamine receptor); test: Octopamine-sensitive adenylate cyclase activation, firefly light organ broken cell preparation; type: biochemical, firefly (Photinus pyralis); conditions: for Ka ratio / Vmax: FIG. 1, formamidines; for Vmax: % of octopamine
Manducca eggs = test: Ovacidal test (eggs dipped in drug solutions); type: in vivo, Manducca sexta
Protocol: In some cases, test agents were tested for ovacidal activity by dipping groups of 10-50 Manducca eggs in drug solutions for 60 seconds and then determining the percentage of eggs which produced viable larvae. A compound or synergist with active ovacidal activity was one which decreased the percentage of eggs hatched, relative to control.

[2] = tested on: tobacco hornworms (Manducca sexta); test: In vivo leaf test (feeding on sprayed tomato leaves); conditions: for effect of adding IBMX on antifeeding / pesticidal activity of the compound: IBMX 0.1%, FIGS. 9, 10, 17, Tables 4, 7, 8, FIG. 9 at 72 hours
[3] = Table 2, clonidines, N.A. = no activity
[4] = Table 1, phenylethylamines, maximal activation as % of that by (±)-p-octopamine, N.A. = No Activity
[5] = Table 1, phenylethylamines, >1 = better than (±)-p-octopamine
[6] = agonist 1 gm/100 ml + IBMX 0.1 g/100 ml
[7] = agonist 1 gm/100 ml, No PDE Inhibitor
[8] = agonist 10^-1 gm/100 ml + IBMX 0.1 g/100 ml
[9] = agonist 10^-1 gm/100 ml, No PDE Inhibitor
[10] = agonist 10^-2 gm/100 ml + IBMX 0.1 g/100 ml
[11] = agonist 10^-2 gm/100 ml, No PDE Inhibitor
[12] = agonist 10^-2 gm/100 ml + PDE Inhibitor IBMX 0.1 g/100 ml
[13] = agonist 10^-3 gm/100 ml + PDE Inhibitor IBMX 0.1 g/100 ml
[14] = agonist 10^-3 gm/100 ml, No PDE Inhibitor
[15] = agonist 10^-4 gm/100 ml + PDE Inhibitor IBMX 0.1 g/100 ml
[16] = agonist 10^-4 gm/100 ml, No PDE Inhibitor
[17] = Table 2, inhibitory properties at the octopamine receptor
[18] = agonist 1 gm/100 ml + PDE Inhibitor IBMX 0.1 g/100 ml
[19] = agonist 10^-1 gm/100 ml + PDE Inhibitor IBMX 0.1 g/100 ml
[20] = agonist 0.3 (3 × 10^-1) gm/100 ml + PDE Inhibitor IBMX 0.1 g/100 ml
[21] = agonist 0.3 (3 × 10^-1) gm/100 ml, No PDE Inhibitor

## Cc1cc(C)c(N=C2NCCN2)c(C)c1 [NC 13]
[1]; [3]
  Ka^oct /Ka^B ratio: 4.3

## Clc1cc(Cl)c(N=C2NCCN2)cc1Cl [NC 3]
[1]; [3]
  Ka^oct /Ka^B ratio: 2.8

## CNC[C@H](O)c1ccc(O)c(O)c1 [(-)-epinephrine]
[1]
  Ka^oct /Ka^B ratio: 0.20
[1]; light organ homogenate
  Vmax (% OCT): 75 ± 2 % OCT

## CC(C)NC[C@H](O)c1ccc(O)c(O)c1 [(-)-isoproterenol]
[1]; [4]
  Vmax (% OCT): 19 ± 1 % OCT

## COc1ccc(CCN)cc1 [p-methoxphenylethylamine]
[1]; [5]
  Ka^oct /Ka^B ratio: 0.10
[1]; [4]
  Vmax (% OCT): 6 ± 3 % OCT

## NCC(O)c1ccc(O)c(Cl)c1 (stereo not shown) [m-chloro-octopamine]
[1]; [5]
  Ka^oct /Ka^B ratio: 0.28
[1]; [4]
  Vmax (% OCT): 77 ± 1 % OCT

## Clc1ccc(N=C2NCCN2)c(Cl)c1 [NC 8]
[1]; [3]
  Ka^oct /Ka^B ratio: 3.7

## CC(N)Cc1ccc(O)cc1 (racemic) [(±)-p-hydroxyamphetamine]
[1]; [5]
  Ka^oct /Ka^B ratio: < 0.05
[1]; [4]
  Vmax (% OCT): 8 ± 3 % OCT

## CNC[C@H](O)c1cccc(O)c1 [(-)-phenylephrine]
[1]; [5]
  Ka^oct /Ka^B ratio: < 0.2
[1]; [4]
  Vmax (% OCT): 17 ± 1 % OCT

## CNCCc1ccc(O)c(O)c1 [Nmethyldopamine]
[1]; [5]
  Ka^oct /Ka^B ratio: 0.19
[1]; [4]
  Vmax (% OCT): 11 ± 1 % OCT

## CN(C)c1cc(Cl)c(N=C2NCCN2)c(Cl)c1 [NC 15]
[1]; [3]
  Ka^oct /Ka^B ratio: 1.9

## CNC=Nc1ccc(Cl)cc1C [DCDM, mono-demethylchlordimeform]
[1]
  more potent than DDCDM against the octopamine receptor: 50%
  Ka ratio: 6
  Vmax: 76%
Manducca eggs; [6]
  % Living Larvae: 2%
Manducca eggs; [7]
  % Living Larvae: 2%
Manducca eggs; [8]
  % Living Larvae: 3%
Manducca eggs; [9]
  % Living Larvae: 50%
Manducca eggs; [10]
  % Living Larvae: 10%
Manducca eggs; [11]
  % Living Larvae: 50%
[2]; [12]
  % Leaf Remaining: 98%
[2]; [11]
  % Leaf Remaining: 95%
[2]; [13]
  % Leaf Remaining: 90%
[2]; [14]
  % Leaf Remaining: 45%
[2]; [15]
  % Leaf Remaining: 75%
[2]; [16]
  % Leaf Remaining: < 5%

## Clc1ccc(Cl)c(N=C2NCCN2)c1 [NC 2]
[1]; [3]
  Ka^oct /Ka^B ratio: 1.1
[1]; [17]
  Ki: 23 µM

## CNCC(O)c1ccc(O)cc1 (racemic) [(±)-Nmethyloctopamine]
[1]; [5]
  Ka^oct /Ka^B ratio: 1.8
[1]; [4]
  Vmax (% OCT): 108 ± 10 % OCT
[2]; [18]
  % Leaf Remaining: 90%
[2]; [7]
  % Leaf Remaining: 30%
[2]; [19]
  % Leaf Remaining: 55%
[2]; [9]
  % Leaf Remaining: < 5%
[2]; [12]
  % Leaf Remaining: 42%
[2]; [11]
  % Leaf Remaining: < 5%

## CCc1cccc(CC)c1N=C1NCCN1 [NC 5]
[1]; [3]
  Ka^oct /Ka^B ratio: 19.0 and ~20
[2]
  effect of adding IBMX on antifeeding / pesticidal activity of the compound: substantial increases in the potency
[2]; [20]
  % Leaf Remaining: 70%
[2]; [21]
  % Leaf Remaining: 40%
[2]; [19]
  % Leaf Remaining: 45%
[2]; [9]
  % Leaf Remaining: 30%
[2]; [12]
  % Leaf Remaining: 30%
[2]; [11]
  % Leaf Remaining: 15%
[2]; [13]
  % Leaf Remaining: 17%
[2]; [14]
  % Leaf Remaining: 10%

## COc1cc(C(O)CN)ccc1O (racemic) [(±)-normetanephrine]
[1]; [5]
  Ka^oct /Ka^B ratio: 0.07
[1]; [4]
  Vmax (% OCT): 68 ± 2 % OCT

## NCCc1ccc(O)cc1 [tyramine]
[1]; [5]
  Ka^oct /Ka^B ratio: 0.15
[1]; [4]
  Vmax (% OCT): 57 ± 1 % OCT

## NC[C@H](O)c1ccc(O)cc1 [(-)-p-octopamine]
[1]; [4]
  Vmax (% OCT): 101 ± 2 % OCT

## NCCc1ccccc1 [β-phenylethylamine]
[1]; [5]
  Ka^oct /Ka^B ratio: 0.03
[1]; [4]
  Vmax (% OCT): 13 ± 2 % OCT

## c1ccc(N=C2NCCN2)cc1 [NC 10]
[1]; [17]
  Ki: 190 µM
[2]; FIGS. 10, 13, 17, Table 8
  antifeeding activity of the compound by itself: inactive in vivo
[2]
  effect of adding IBMX on antifeeding / pesticidal activity of the compound: not synergized by the PDE inhibitor
[2]; [18]
  % Leaf Remaining: 15%
[2]; [7]
  % Leaf Remaining: 5%
[2]; [19]
  % Leaf Remaining: 13%
[2]; [9]
  % Leaf Remaining: 5%
[2]; [12]
  % Leaf Remaining: 15%
[2]; [11]
  % Leaf Remaining: 5%
[2]; [13]
  % Leaf Remaining: 12%
[2]; [14]
  % Leaf Remaining: 5%

## NCC(O)c1ccc(F)cc1 (stereo not shown) [p-fluoro-phenylethanolamine]
[2]; [20]
  % Leaf Remaining: 95%
[2]; [21]
  % Leaf Remaining: 25%
[2]; [19]
  % Leaf Remaining: 98%
[2]; [12]
  % Leaf Remaining: 80%
[2]; [13]
  % Leaf Remaining: 50%
[2]; [14]
  % Leaf Remaining: < 5%

## NCC(O)c1ccc(Cl)cc1Cl (stereo not shown) [2,4-dichlorophenylethanolamine]
[2]; [18]
  % Leaf Remaining: 80%
[2]; [7]
  % Leaf Remaining: 10%
[2]; [19]
  % Leaf Remaining: 50%
[2]; [9]
  % Leaf Remaining: < 5%
[2]; [12]
  % Leaf Remaining: 30%
[2]; [11]
  % Leaf Remaining: < 5%

## Cc1cccc(C)c1N=C1NCCN1 [NC 4]
[1]; [3]
  Ka^oct /Ka^B ratio: 0.41

## Cc1cc(Cl)ccc1N=CN(C)C [CDM, chlordimeform]
[1]
  Ka ratio: 0.5
  Vmax: about 10%
Manducca eggs; [6]
  % Living Larvae: 2%
Manducca eggs; [7]
  % Living Larvae: 2%
Manducca eggs; [8]
  % Living Larvae: 10%
Manducca eggs; [9]
  % Living Larvae: 25%
Manducca eggs; [10]
  % Living Larvae: 10%
Manducca eggs; [11]
  % Living Larvae: 60%
[2]; [18]
  % Leaf Remaining: 90%
[2]; [7]
  % Leaf Remaining: 90%
[2]; [19]
  % Leaf Remaining: 90%
[2]; [9]
  % Leaf Remaining: 70%
[2]; [12]
  % Leaf Remaining: 85%
[2]; [11]
  % Leaf Remaining: < 5%
[2]; [13]
  % Leaf Remaining: 65%
[2]; [14]
  % Leaf Remaining: < 5%
[2]; [15]
  % Leaf Remaining: 50%
[2]; [16]
  % Leaf Remaining: < 5%

## Nc1cc(Cl)c(N=C2NCCN2)c(Cl)c1 [NC 14]
[1]; [3]
  Ka^oct /Ka^B ratio: 0.7
[1]; [17]
  Ki: 440 µM

## CNC(C)C(O)c1ccc(O)cc1 (racemic) [(±)-α-methylsynephrine]
[1]; [5]
  Ka^oct /Ka^B ratio: < 0.01
[1]; [4]
  Vmax (% OCT): 7 ± 2 % OCT

## C[C@H](N)[C@H](O)c1ccccc1 (relative stereo) [(±)-norephedrine]
[1]; [5]
  Ka^oct /Ka^B ratio: < 0.09
[1]; [4]
  Vmax (% OCT): 8 ± 1 % OCT

## Nc1ncnc2c1nc(Sc1ccc(Cl)cc1)n2[C@@H]1O[C@@H]2COP(=O)(O)O[C@H]2[C@H]1O [p-Cl-phenylthio cyclic AMP, 8-p-chlorophenylthio-cyclic AMP]
[2]; concentration of 1%, FIGS. 18, 19
  antifeeding activity in the absence of IBMX: some antifeeding activity

## CN(C)CC(O)c1ccc(O)cc1 (racemic) [(±)-N,Ndimethyloctopamine]
[1]; [5]
  Ka^oct /Ka^B ratio: 0.9
[1]; [4]
  Vmax (% OCT): 43 ± 4 % OCT

## Brc1ccc(N=C2NCCN2)cc1 [NC 12]
[1]; [3]
  Ka^oct /Ka^B ratio: 3.0

## NCC(O)c1cccc(O)c1 (racemic) [(±)-m-octopamine]
[1]; [5]
  Ka^oct /Ka^B ratio: 0.1
[1]; [4]
  Vmax (% OCT): 9 ± 1 % OCT
[2]
  effect of adding IBMX on antifeeding / pesticidal activity of the compound: failed to increase pesticidal activity

## NCC(O)c1ccccc1O (racemic) [(±)-o-octopamine]
[1]; [5]
  Ka^oct /Ka^B ratio: 0.05
[1]; [4]
  Vmax (% OCT): 23 ± 1 % OCT

## NC[C@H](O)c1ccc(O)c(O)c1 [(-)-nonrepinephrine]
[1]; [5]
  Ka^oct /Ka^B ratio: 0.13
[1]; [4]
  Vmax (% OCT): 72 ± 1 % OCT

## CC(N)C(O)c1ccc(O)cc1 (racemic) [(±)-α-methyloctopamine]
[1]; [5]
  Ka^oct /Ka^B ratio: 0.05
[1]; [4]
  Vmax (% OCT): 44 ± 2 % OCT

## Clc1cccc(Cl)c1N=C1NCCN1 [clonidine]
[1]
  Ka^oct /Ka^B ratio: 0.95
  Ki: 20 µM
[2]
  effect of adding IBMX on antifeeding / pesticidal activity of the compound: substantial increases in the potency
[2]; [18]
  % Leaf Remaining: 63%
[2]; [7]
  % Leaf Remaining: 65%
[2]; [19]
  % Leaf Remaining: 55%
[2]; [9]
  % Leaf Remaining: 20%
[2]; [12]
  % Leaf Remaining: 55%
[2]; [11]
  % Leaf Remaining: 5%

## Cc1ccc(N=C2NCCN2)c(C)c1 [NC 9]
[1]; [3]
  Ka^oct /Ka^B ratio: 5.1

## Clc1cc(Cl)c(N=C2NCCN2)c(Cl)c1 [NC 11]
[1]; [3]
  Ka^oct /Ka^B ratio: 1.9

## NCCc1ccc(O)c(O)c1 [dopamine]
[1]; [5]
  Ka^oct /Ka^B ratio: 0.26
[1]; [4]
  Vmax (% OCT): 4 ± 1 % OCT

## CN(CCCl)c1cc(Cl)c(N=C2NCCN2)c(Cl)c1 [NC 16]
[1]
  Ki: 10 µM
[1]; [3]
  Ka^oct /Ka^B ratio: 4.8

## Brc1cccc(Br)c1N=C1NCCN1 [NC 6]
[1]; [3]
  Ka^oct /Ka^B ratio: 2.1
